Source: patent US7091199B1, “Thienoisoxazole phenoxy unsubstituted ethyl and propyl derivatives useful as d4 antagonists” (Aventis Pharmaceuticals Inc., priority 1999, dated 2006)
Where a name gives a salt, the structure may show the parent alone. Read-outs that look alike come from different tables or passages of the source.

How the values were obtained:
[1] = biological target: T1, human D4 receptor (D4.2 sub-type) (Homo sapiens, UniProt P21917, DEL271-302); experiment: D4 receptor binding assay (3H-spiperone displacement); settings: for Ki: 3H-spiperone 0.25 nM, HEK cell membranes, human D4.2, read-out: D4 RBA Ki; for inhibition at 1 µM: @ 1 μM test compound, 3H-spiperone binding, read-out: D4 RBA % Inhibition (@ 1 μM)
T1 sequence (P21917 with tags, fused parts or gaps DEL271-302): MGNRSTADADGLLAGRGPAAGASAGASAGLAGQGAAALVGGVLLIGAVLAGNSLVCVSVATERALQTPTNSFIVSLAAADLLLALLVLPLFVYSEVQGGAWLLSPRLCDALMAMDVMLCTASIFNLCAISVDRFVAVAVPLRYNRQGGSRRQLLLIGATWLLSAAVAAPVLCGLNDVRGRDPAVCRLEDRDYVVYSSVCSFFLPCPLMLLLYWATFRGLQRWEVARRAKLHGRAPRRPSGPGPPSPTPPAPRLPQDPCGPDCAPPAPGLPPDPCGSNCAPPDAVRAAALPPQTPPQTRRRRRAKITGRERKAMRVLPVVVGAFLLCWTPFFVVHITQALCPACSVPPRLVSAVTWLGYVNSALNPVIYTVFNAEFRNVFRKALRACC
Description: D4 receptor-binding affinities of the compounds were evaluated according to their ability to reduce binding of ^3H-spiperone as compared to the reference compound clozapine. The potency of the test compound to reduce ^3H-spiperone binding directly correlated to its binding affinity for the receptor.
[…] (human embryonic kidney) cells stably transfected with human D4 receptor (D4.2 sub-type) were grown in NUNC cell factories for 5 days (75% confluency) without a media change and removed with versene (approximately 19 mg of cells per cell factory tray). The cells were then centrifuged in a Sorval centrifuge for 10 min, 5000 rpm (GS3 rotor) and the pellets quickly frozen in liquid nitrogen and stored at −80° C. until used in binding assay. When used in the assay, cells were thawed on ice for 20 min and then 10 mL of incubation buffer (50 mM Tris, 1 mM EDTA, 4 mM MgCl2, 5 mM KCl, 1.5 mM CaCl2, 120 mM NaCl, pH 7.4) was added. The cells were then vortexed to resuspend pellet and homogenized with a Kinematica, CH-6010 Kriens-LU, homogenizer for 15 seconds at setting 7. Concentration of receptor protein was determined using the Pierce BCA assay.
The incubation was started by the addition of 100 μl (50 μg protein) membrane homogenate to a solution of 300 μl incubation buffer and 100 μl (0.25 nM final conc.) ^3H-spiperone (90 Ci/mmol, Amersham, diluted in borosilicate glass vial) in 96-well polypropylene plates (1 mL per well). The plates were vortexed and incubated at room temperature for 90 minutes. The binding reaction was stopped by filtering using a Packard Harvester. The samples were filtered under vacuum over glass fibre filter plates (Whatman GF/B) presoaked for 2 hours in 0.3% polyethylenimine (PEI) in 50 mM Tris buffer (pH 7.4). The filters were then washed 6 times with 7 mL ice cold 50 mM Tris buffer (pH 7.4). The filter plates were dried overnight and 35 μl of Microscint-O (Packard) was added. The plates were sealed and counted in the Packard Top Count (3 minutes per well).
The incubation was started by the addition of 100 μl (50 μg protein) membrane homogenate to a solution of 200 μl incubation buffer, 100 μl ^3H-spiperone (90 Ci/mmol, Amersham, diluted in borosilicate glass vial to 0.25 nM final conc.) and 100 μl (30 μM final conc.) of fresh dopamine (Research Biochemicals Inc., light protected and dissolved in incubation buffer) in 96-well polypropylene plates (1 mL per well). The plates were vortexed and incubated at room temperature for 90 minutes at which time the binding reaction was stopped by filtering. The filters were washed and counted using the same procedure as in the total binding assay described above to give the non-specific binding value (NSB).
The incubation was started by the addition, in 96-well polypropylene plates (1 mL per well), of 100 μl (50 μg protein) membrane homogenate to a solution of 200 μl incubation buffer, 100 μl (0.25 nM final conc.) ^3H-spiperone (90 Ci/mmol, Amersham, diluted in borosilicate glass vial) and 100 μl of test compound that was prepared from 1 mM stock dissolved in DMSO and stored at −20° C. in polypropylene cryogenic storage vials until dilution in incubation buffer in 96-well polypropylene plates. The plates were vortexed and incubated at room temperature for 90 minutes at which time the binding reaction was stopped by filtering. The filters were washed and counted using the same procedure as in the total binding assay described above to give the displacement binding value (BD).
The test compounds were initially assayed at 1 and 0.1 μM and then at a range of concentrations chosen such that the middle dose would cause about 50% inhibition of ^3H-spiperone binding. Specific binding in the absence of test compound (B0) was the difference of total binding (BT) minus non-specific binding (NSB) and similarly specific binding (in the presence of test compound) (B) was the difference of displacement binding (BD) minus non-specific binding (NSB). […]

[2] = tested on: CD-1 or C57 male mice (MK-801 induced stereotypy); experiment: MK-801 Stereotypy in Mice; type: in vivo; settings: Mus musculus; for inhibition in vivo at 20 mg/kg: read-out: Antag. of MK 801 Stereotypy % Inhib. @ 20 mg/kg
Description: Mk-801 dose-dependently induces characteristic stereotypy marked by locomotion and falling behavior. This MK-801 induced behavior can be antagonized by novel neuroleptic agents. This assay can also assess time course effects following drug administration.
CD-1 or C57 male mice are individually placed in activity boxes (8 mice/drug) and allowed to acclimate for 60 minutes. The mice are then administered test compounds either i.p., s.c., or p.o., at 15, 30, or 60 minutes prior to MK-801 (0.2 mg/kg) administration. Mice are observed for the presence of locomotion and falling behaviors 15 minutes following MK-801. For the duration of action studies the test compounds are administered i.p., s.c., or p.o., at 30, 60, 120, 180, and 240 minutes prior to MK-801 administration.

Row | Ki [1] [nM] | inhibition at 1 µM [1] [%] | Compound | further results
1 | 17 |  | Fc1ccc(CNCCCOc2cccc(-c3noc4ccsc34)c2)cc1 [Compound 3, (4-fluoro-benzyl)-[3-(3-thieno[2,3-d]isoxazol-3-yl-phenoxy)-propyl]-amine] | inhibition in vivo at 20 mg/kg ([2]; po): 37.5%
2 | 18 |  | c1cc(OCCCNCc2ccsc2)cc(-c2noc3ccsc23)c1 [Compound 7, [3-(3-thieno[2,3-d]isoxazol-3-yl-phenoxy)-propyl]-thiophen-3-yl-methylamine] | inhibition in vivo at 20 mg/kg ([2]; po): 75%
3 | 55 |  | c1cnc(N2CCN(CCCOc3cccc(-c4noc5ccsc45)c3)CC2)nc1 [Compound 13, 3-{3-[3-(4-pyrimidin-2-yl-piperazin-1-yl)-propoxy]-phenyl}-thieno[2,3-d]isoxazole] | inhibition in vivo at 20 mg/kg ([2]; ip): 37.5%
4 | 12 |  | Fc1ccc(CNCCOc2cccc(-c3noc4ccsc34)c2)cc1 [Compound 17, (4-fluoro-benzyl)-[2-(3-thieno[2,3-d]isoxazol-3-yl-phenoxy)-ethyl]-amine] | ED50 ([2]; PO, MK-801 stereotypy, read-out: In Vivo ED50): 14.1 mg/kg; inhibition in vivo at 20 mg/kg ([2]; po): 62.5%
5 | 34 |  | Clc1ccc(CNCCOc2cccc(-c3noc4ccsc34)c2)cc1 [Compound 18, (4-chloro-benzyl)-[2-(3-thieno[2,3-d]isoxazol-3-yl-phenoxy)-ethyl]-amine] | inhibition in vivo at 20 mg/kg ([2]; po): 37.5%
6 | 15 |  | Fc1cccc(CNCCOc2cccc(-c3noc4ccsc34)c2)c1 [Compound 19, (3-fluoro-benzyl)-[2-(3-thieno[2,3-d]isoxazol-3-yl-phenoxy)-ethyl]-amine] | inhibition in vivo at 20 mg/kg ([2]; po): 75%
7 | 5.27 |  | Cc1ccc(CNCCOc2cccc(-c3noc4ccsc34)c2)cc1 [Compound 20, (4-methyl-benzyl)-[2-(3-thieno[2,3-d]isoxazol-3-yl-phenoxy)-ethyl]-amine] | inhibition in vivo at 20 mg/kg ([2]; po): 37.5%
8 |  | 52 | c1cc(OCCCN2CCc3ccccc3C2)cc(-c2noc3ccsc23)c1 [Compound 45, 2-[3-(3-thieno[2,3-d]isoxazol-3-yl-phenoxy)-propyl]-1,2,3,4-tetrahydroisoquinoline] | 
9 | 36.1 |  | c1cc(OCCNC2Cc3ccccc3C2)cc(-c2noc3ccsc23)c1 [Compound 46, indan-2-yl-[2-(3-thieno[2,3-d]isoxazol-3-yl-phenoxy)-ethyl]-amine hydrochloride] | 
10 | 23 |  | c1cc(OCCNC23CC4CC(CC(C4)C2)C3)cc(-c2noc3ccsc23)c1 [Compound 47, adamantan-1-yl-[2-(3-thieno[2,3-d]isoxazol-3-yl-phenoxy)-ethyl]-amine] | 
11 |  | 83 | c1cc(OCCN2CCCCC2)cc(-c2noc3ccsc23)c1 [Compound 48, 3-[3-(2-piperidin-1-yl-ethoxy)-phenyl]-thieno[2,3-d]isoxazole] | 
12 |  | 95 | Fc1ccc(CNCCOc2cccc(-c3noc4ccsc34)c2)c(F)c1 [Compound 49, (2,4-difluoro-benzyl)-[2-(3-thieno[2,3-d]isoxazol-3-yl-phenoxy)-ethyl]-amine] | 
13 |  | 65 | Fc1cccc(F)c1CNCCOc1cccc(-c2noc3ccsc23)c1 [Compound 50, (2,6-difluoro-benzyl)-[2-(3-thieno[2,3-d]isoxazol-3-yl-phenoxy)-ethyl]-amine] | 
14 |  | 58 | FC(F)(F)c1ccccc1CNCCOc1cccc(-c2noc3ccsc23)c1 [Compound 51, [2-(3-thieno[2,3-d]isoxazol-3-yl-phenoxy)-ethyl]-(2-trifluoromethylbenzyl)-amine] | 
15 |  | 96 | FC(F)(F)c1ccc(CNCCOc2cccc(-c3noc4ccsc34)c2)cc1 [Compound 52, [2-(3-thieno[2,3-d]isoxazol-3-yl-phenoxy)-ethyl]-(4-trifluoromethylbenzyl)-amine] | 
16 |  | 94 | c1cc(OCCCNC23CC4CC(CC(C4)C2)C3)cc(-c2noc3ccsc23)c1 [Compound 53, adamantan-1-yl-[3-(3-thieno[2,3-d]isoxazol-3-yl-phenoxy)-propyl]-amine] | 
17 |  | 94 | c1cc(OCCCN2CCCCC2)cc(-c2noc3ccsc23)c1 [Compound 54, 3-[3-(3-piperidin-1-yl-propoxy)-phenyl]-thieno[2,3-d]isoxazole] | 
18 |  | 92 | Fc1ccc(CNCCCOc2cccc(-c3noc4ccsc34)c2)c(F)c1 [Compound 55, (2,4-difluoro-benzyl)-[3-(3-thieno[2,3-d]isoxazol-3-yl-phenoxy)-propyl]-amine] | 
19 |  | 64 | Fc1cccc(F)c1CNCCCOc1cccc(-c2noc3ccsc23)c1 [Compound 56, (2,6-difluoro-benzyl)-[3-(3-thieno[2,3-d]isoxazol-3-yl-phenoxy)-propyl]-amine] | 
20 |  | 46 | FC(F)(F)c1ccccc1CNCCCOc1cccc(-c2noc3ccsc23)c1 [Compound 57, [3-(3-thieno[2,3-d]isoxazol-3-yl-phenoxy)-propyl]-(2-trifluoromethylbenzyl)-amine] | 
21 |  | 77 | FC(F)(F)c1ccc(CNCCCOc2cccc(-c3noc4ccsc34)c2)cc1 [Compound 58, [3-(3-thieno[2,3-d]isoxazol-3-yl-phenoxy)-propyl]-(4-trifluoromethylbenzyl)-amine] | 
22 |  | 90 | CC1CCN(CCOc2cccc(-c3noc4ccsc34)c2)CC1 [Compound 59, 3-{3-[2-(4-methyl-piperidin-1-yl)-ethoxy]-phenyl}-thieno[2,3-d]isoxazole] | 
23 |  | 82 | CCCC1CCN(CCOc2cccc(-c3noc4ccsc34)c2)CC1 [Compound 60, 3-{3-[2-(4-propyl-piperidin-1-yl)-ethoxy]-phenyl}-thieno[2,3-d]isoxazole] | 
24 |  | 41 | c1cc(OCCN2CCCC2)cc(-c2noc3ccsc23)c1 [Compound 61, 3-[3-(2-pyrrolidin-1-yl-ethoxy)-phenyl]-thieno[2,3-d]isoxazole] | 
25 |  | 90 | c1cc(OCCN2CCCCCC2)cc(-c2noc3ccsc23)c1 [Compound 62, 3-[3-(2-azepan-1-yl-ethoxy)-phenyl]-thieno[2,3-d]isoxazole] | 
26 |  | 54 | c1cc(OCCN2CCCCCCC2)cc(-c2noc3ccsc23)c1 [Compound 63, 3-[3-(2-azocan-1-yl-ethoxy)-phenyl]-thieno[2,3-d]isoxazole] | 
